Assay results: patent publication US10882830B2, “Crystal form of ozanimod hydrochloride and processes for preparation therefor” (Receptos LLC, priority 2016, dated 2021)
Counter-ions that a name gives are not always drawn.

Legend:
Assay type in all cases: physicochemical
[1] = Hygroscopicity assessment by dynamic vapor sorption (DVS); settings: 25° C.; for Weight Gain under 80% RH: DVS, about 10 mg of sample
Protocol: Dynamic Vapor Sorption (DVS) is measured via an SMS (Surface Measurement Systems Ltd.) intrinsic DVS. Typical Parameters for DVS test are as follows:
Gas and flow rate: N2, 200 mL/min
RH range: 0% RH to 95% RH
Dynamic vapor sorption (DVS) was applied to test hygroscopicity of Form CS3 with about 10 mg of sample. The DVS plot is substantially as depicted in FIG. 5.
Description and definition of hygroscopicity (Chinese Pharmacopoeia 2015 edition appendix Drug hygroscopic test guidelines, test at 25° C.+/−1° C., 80% RH). • deliquescent: Sufficient water is absorbed to form a liquid; • very hygroscopic: Increase in mass is equal to or greater than 15%; • hygroscopic: Increase in mass is less than 15% and equal to or greater than 2%; • slightly hygroscopic: Increase in mass is less than 2% and equal to or greater than 0.2%. • no or almost no hygroscopic: Increase in mass is less than 0.2%.

[2] = Solubility assessment: saturated solutions in SGF, FeSSIF and water, concentration by HPLC; settings: thermodynamic from solid
Protocol: Form CS3 of ozanimod hydrochloride was suspended into SGF (Simulated gastric fluids, pH=1.8), FeSSIF (Fed state simulated intestinal fluids, pH=5.0) and water to obtain saturated solutions. After being equilibrated for 1 h, 4 h and 24 h, concentrations of the saturated solutions were measured by HPLC.

[3] = Particle size distribution test (Microtrac S3500 laser particle size analyzer, wet process)
Protocol: The particle size distribution test in the present disclosure is acquired by the S3500 laser particle size analyzer of Microtrac. Microtrac S3500 is equipped with the SDC (Sample Delivery Controller). The test is carried out by wet process, and the dispersion medium is Isopar G The parameters are as follow:
Sample of Form CS3 was taken for particle size distribution test.

[4] = Stability assessment in constant temperature and humidity chambers, crystalline form tested by XRPD; settings: 2 weeks
Protocol: Two samples of Form CS3 of ozanimod hydrochloride were placed in constant temperature and humidity chambers at 25° C./60% RH and 40° C./75% RH for 2 weeks. XRPD was used to test the crystalline form. The XRPD overlay pattern is substantially as depicted in FIG. 8 (from top to bottom: XRPD pattern of Form CS3 before and after being stored under 25° C./60% RH and 40° C./75% RH for 2 weeks). […] It can be seen that Form CS3 of ozanimod hydrochloride has good stability, which is benefit for drug storage.

For `CC(C)Oc1ccc(-c2nc(-c3cccc4c3CC[C@@H]4NCCO)no2)cc1C#N` [Form CS3 of ozanimod hydrochloride, ozanimod hydrochloride], the “Hygroscopicity class according to the definition of hygroscopicity” value ([1]; Chinese Pharmacopoeia 2015 definition, 80% RH) was “hygroscopic”, the “Weight Gain under 80% RH” value ([1]; hydrochloride) was 2.50% and the “Weight Gain under 80% RH” value ([1]; listed as Form CS3, hydrochloride) was 2.50%. The solubility at 1 h ([2]; fed state simulated intestinal fluid (FeSSIF), FeSSIF pH=5.0, 1 h) was 2100 µg/mL, the solubility at 4 h ([2]; fed state simulated intestinal fluid (FeSSIF), FeSSIF pH=5.0, 4 h) was 2100 µg/mL and the solubility at 24 h ([2]; fed state simulated intestinal fluid (FeSSIF), FeSSIF pH=5.0, 24 h) was 1800 µg/mL. The solubility at 1 h ([2]; simulated gastric fluid (SGF), simulated gastric fluid, SGF pH=1.8, 1 h) was 200 µg/mL, the solubility at 4 h ([2]; simulated gastric fluid (SGF), simulated gastric fluid, SGF pH=1.8, 4 h) was 200 µg/mL and the solubility at 24 h ([2]; simulated gastric fluid (SGF), simulated gastric fluid, SGF pH=1.8, 24 h) was 200 µg/mL. It also gave a solubility at 1 h ([2]; water, H2O, 1 h) of 1100 µg/mL, a solubility at 4 h ([2]; water, H2O, 4 h) of 1400 µg/mL and a solubility at 24 h ([2]; water, H2O, 24 h) of 1300 µg/mL. For the same compound, the “MV (average particle size calculated by volume)” value ([3]; dispersion medium Isopar G, average of 3 runs) was 131.8 μm, the average particle size ([3]; unit not given) was 131.8 and the D10 ([3]; volume distribution, Isopar G) was 19.94 μm. For the same compound, the D50 ([3]; volume distribution, Isopar G) was 100.5 μm, the D90 ([3]; volume distribution, Isopar G) was 287.0 μm and the “Crystalline form change by XRPD after storage” value ([4]; 25° C./60% RH) was “No form change”. The “Crystalline form change by XRPD after storage” value ([4]; 40° C./75% RH) was “No form change”.
